In brackets after ≈: the same amount, converted by molar mass.
Experiments:
Assay type in all cases: functional
Candida tropicalis [1] = assay: Antifungal activity against Candida tropicalis; details: Candida tropicalis
Candida albicans [2] = assay: Potency index, ratio of fluconazole MIC to test compound MIC for Candida albicans
Kluyveromyces marxianus = assay: Antifungal activity against Candida kefyr; details: Kluyveromyces marxianus
Candida albicans [3] = assay: Antifungal activity against Candida albicans ATCC 76615 after 24 hrs by microbroth dilution method; details: ATCC 76615, 24 h
Cryptococcus neoformans [4] = assay: Antifungal activity against Cryptococcus neoformans; details: Cryptococcus neoformans
Trichophyton rubrum [5] = assay: Antifungal activity against Trichophyton rubrum; details: Trichophyton rubrum
Aspergillus fumigatus [6] = assay: Antifungal activity against Aspergillus fumigatus; details: Aspergillus fumigatus
Candida albicans [7] = assay: Antifungal activity against Candida albicans; details: Candida albicans; for MIC: read-out: MIC
Candida parapsilosis [8] = assay: Antifungal activity against Candida parapsilosis; details: Lodderomyces parapsilosis
Nannizzia gypsea [9] = assay: Potency index, ratio of fluconazole MIC80 to test compound MIC80 for Microsporum gypseum
Trichophyton rubrum [10] = assay: Potency index, ratio of fluconazole MIC80 to test compound MIC80 for Trichophyton rubrum
Candida albicans [11] = assay: Antifungal activity against Candida albicans after 48 hrs by NCCLS protocol based method
Candida parapsilosis [12] = assay: Antifungal activity against Candida parapsilosis after 48 hrs by NCCLS protocol based method; details: Lodderomyces parapsilosis
Pichia norvegensis = assay: Antifungal activity against Candida mycoderma
Nannizzia gypsea [13] = assay: Antifungal activity against Microsporum gypseum after 7 days by NCCLS protocol based method; details: 168 h
Candida tropicalis [14] = assay: Antifungal activity against Candida tropicalis after 24 hrs by microbroth dilution method
Pichia kudriavzevii = assay: Antifungal activity against Candida krusei after 24 hrs
Trichophyton rubrum [15] = assay: Antifungal activity against Trichophyton rubrum after 24 hrs
Trichophyton rubrum [16] = assay: Antifungal activity against Trichophyton rubrum after 24 hrs by microbroth dilution method
Cryptococcus neoformans [17] = assay: Antifungal activity against Cryptococcus neoformans after 72 hrs by NCCLS protocol based method
Fonsecaea compacta = assay: Antifungal activity against Fonsecaea compacta after 24 hrs by microbroth dilution method
Cryptococcus neoformans [18] = assay: Antifungal activity against Cryptococcus neoformans after 24 hrs
Trichophyton rubrum [19] = assay: Antifungal activity against Trichophyton rubrum after 7 days by NCCLS protocol based method; details: 168 h
Candida parapsilosis [20] = assay: Antifungal activity against Candida parapsilosis after 24 hrs; details: Lodderomyces parapsilosis
Candida albicans [21] = assay: Antifungal activity against Candida albicans infected in Caenorhabditis elegans assessed as survival at 32 ug/ml relative to control
Candida tropicalis [22] = assay: Antifungal activity against Candida tropicalis after 24 hrs by NCCLS protocol based method
Aspergillus fumigatus [23] = assay: Antifungal activity against Aspergillus fumigatus after 24 hrs
Microsporum canis = assay: Antifungal activity against Microsporum canis after 24 hrs by microbroth dilution method
Candida albicans [24] = assay: Antifungal activity against fluconalzole-susceptible Candida albicans after 24 hrs
Candida albicans [25] = assay: Antifungal activity against Candida albicans after 24 hrs by NCCLS protocol based method
Candida albicans [26] = assay: Antifungal activity against Candida albicans ATCC SC5314 after 24 hrs; details: ATCC SC5314, 24 h
Aspergillus fumigatus [27] = assay: Antifungal activity against Aspergillus fumigatus after 24 hrs by microbroth dilution method
Candida albicans [28] = assay: Antifungal activity against Candida albicans Y0109 after 24 hrs; details: Y0109, 24 h
Candida parapsilosis [29] = assay: Antifungal activity against fluconalzole-susceptible Candida parapsilosis after 24 hrs; details: Lodderomyces parapsilosis
Nannizzia gypsea [30] = assay: Antifungal activity against Microsporum gypseum after 24 hrs

OC(CN1CCC(OCc2ccccc2)CC1)(Cn1cncn1)c1ccc(F)cc1F (centres undefined) was tested, and the MIC80 (Candida tropicalis [1]) was 0.01 to 0.56 µM (≈ 0.00428 to 0.24 µg/mL), the Ratio (Candida albicans [2]) was 82 and the MIC80 (Kluyveromyces marxianus) was 0.01 to 0.56 µM (≈ 0.00428 to 0.24 µg/mL). It also gave an MIC80 (Candida albicans [3]) of 0.01 to 0.56 µM (≈ 0.00428 to 0.24 µg/mL), an MIC80 (Cryptococcus neoformans [4]) of 0.01 to 0.56 µM and an MIC80 (Trichophyton rubrum [5]) of 0.01 to 0.56 µM (≈ 0.00428 to 0.24 µg/mL). For the same compound, the MIC80 (Aspergillus fumigatus [6]) was 0.01 to 0.56 µM (≈ 0.00428 to 0.24 µg/mL), the MIC80 (Candida albicans [7]) was 0.01 to 0.56 µM and the MIC80 (Candida parapsilosis [8]) was 0.01 to 0.56 µM.
OC(CN1CCN(Cc2cn(Cc3ccc(Br)cc3)nn2)CC1)(Cn1cncn1)c1ccc(F)cc1F (centres undefined) was tested, and the Ratio (Nannizzia gypsea [9]) was 4 - 128, the MIC80 (Cryptococcus neoformans [4]) was ≤ 0.5 µg/mL and the MIC80 (Candida albicans [7]) was ≤ 0.5 µg/mL. For the same compound, the MIC80 (Candida parapsilosis [8]) was ≤ 0.5 µg/mL and the Ratio (Trichophyton rubrum [10]) was 4 - 128.
COC(=O)CC[C@@H](C)[C@H]1CC[C@H]2[C@@H]3[C@H](O)C[C@@H]4C[C@@H](n5cc(CC(O)(Cn6cncn6)c6ccc(F)cc6F)nn5)CC[C@]4(C)[C@H]3C[C@H](O)[C@]12C (some centres undefined) was tested, and the MIC (Candida albicans [11]) was 3.12 to 6.25 µg/mL (≈ 4.39 to 8.79 µM) and the MIC (Candida parapsilosis [12]) was 3.12 to 6.25 µg/mL (≈ 4.39 to 8.79 µM).
O=C(O)c1cn(C2CC2)c2c(Cl)c(N3CCC(NCC(O)(Cn4cncn4)c4ccc(Cl)c(Cl)c4)C3)c(F)cc2c1=O (centres undefined) was tested, and the MIC (Pichia norvegensis) was 0.25 to 2 µg/mL (≈ 0.393 to 3.15 µM) and the MIC (Candida albicans [7]) was 0.25 to 2 µg/mL (≈ 0.393 to 3.15 µM).
OC(CN1CCC(OCc2ccc(Cl)c(Cl)c2)CC1)(Cn1cncn1)c1ccc(F)cc1F (centres undefined) was tested, and the MIC80 (Candida tropicalis [1]) was 0.01 to 2.33 µM (≈ 0.00497 to 1.16 µg/mL), the Ratio (Candida albicans [2]) was 82 and the MIC80 (Kluyveromyces marxianus) was 0.01 to 2.33 µM (≈ 0.00497 to 1.16 µg/mL). The MIC80 (Candida albicans [3]) was 0.01 to 2.33 µM (≈ 0.00497 to 1.16 µg/mL), the MIC80 (Cryptococcus neoformans [4]) was 0.01 to 2.33 µM and the MIC80 (Trichophyton rubrum [5]) was 0.03 to 0.15 µM (≈ 0.0149 to 0.0746 µg/mL). The MIC80 (Aspergillus fumigatus [6]) was 0.55 to 2.33 µM (≈ 0.274 to 1.16 µg/mL), the MIC80 (Candida albicans [7]) was 0.01 µM and the MIC80 (Candida parapsilosis [8]) was 0.01 to 2.33 µM.
Work on C[C@H](CCCn1cc(CC(O)(Cn2cncn2)c2ccc(F)cc2F)nn1)[C@H]1CC[C@H]2[C@@H]3CC[C@@H]4C[C@H](O)CC[C@]4(C)[C@H]3C[C@H](O)[C@]12C (some centres undefined) yielded an MIC (Candida albicans [11]) of 3.12 to 6.25 µg/mL (≈ 4.68 to 9.37 µM) and an MIC (Candida parapsilosis [12]) of 3.12 to 6.25 µg/mL (≈ 4.68 to 9.37 µM).
In the case of COC(=O)CC[C@@H](C)[C@H]1CC[C@H]2[C@@H]3CC[C@@H]4C[C@@H](n5cc(CC(O)(Cn6cncn6)c6ccc(F)cc6F)nn5)CC[C@]4(C)[C@H]3C[C@H](O)[C@]12C (some centres undefined), the MIC (Candida albicans [11]) is reported as 3.12 to 6.25 µg/mL (≈ 4.49 to 8.99 µM) and the MIC (Candida parapsilosis [12]) is reported as 3.12 to 6.25 µg/mL (≈ 4.49 to 8.99 µM).
OC(Cn1cncn1)(Cn1cncn1)c1ccc(F)cc1F [FLUCONAZOLE] was tested, and the MIC (Nannizzia gypsea [13]) was 0.5 µg/mL (≈ 1.63 µM), the MIC80 (Candida tropicalis [14]) was ≥ 0.5 µg/mL and the MIC (Candida tropicalis [1]; read-out: MIC) was 0.125 to 8 µg/mL (≈ 0.408 to 26.1 µM). The MIC (Pichia kudriavzevii) was ≥ 64 µg/mL, the MIC (Kluyveromyces marxianus; read-out: MIC) was 0.125 to 8 µg/mL (≈ 0.408 to 26.1 µM) and the MIC (Trichophyton rubrum [15]) was ≥ 64 µg/mL. The MIC80 (Trichophyton rubrum [16]) was ≥ 0.5 µg/mL, the MIC (Cryptococcus neoformans [17]) was 0.5 µg/mL (≈ 1.63 µM) and the MIC80 (Fonsecaea compacta) was ≥ 0.5 µg/mL. The MIC (Cryptococcus neoformans [18]) was ≥ 64 µg/mL, the MIC (Trichophyton rubrum [19]) was 0.5 µg/mL (≈ 1.63 µM) and the MIC (Candida parapsilosis [20]) was ≥ 64 µg/mL. The survival at 32 µg/mL (Candida albicans [21]) was 60%, the MIC (Candida tropicalis [22]) was 0.5 µg/mL (≈ 1.63 µM) and the MIC (Aspergillus fumigatus [23]) was ≥ 64 µg/mL. For the same compound, the MIC (Cryptococcus neoformans [4]; read-out: MIC) was 1 µg/mL (≈ 3.27 µM), the MIC80 (Microsporum canis) was ≥ 0.5 µg/mL and the MIC (Candida albicans [24]) was 0.5 to 4 µg/mL (≈ 1.63 to 13.1 µM). The MIC (Candida albicans [25]) was 0.5 µg/mL (≈ 1.63 µM), the MIC (Candida albicans [26]) was ≥ 64 µg/mL and the MIC (Trichophyton rubrum [5]; read-out: MIC) was 0.125 to 8 µg/mL (≈ 0.408 to 26.1 µM). The MIC80 (Aspergillus fumigatus [27]) was ≥ 0.5 µg/mL, the MIC80 (Aspergillus fumigatus [6]) was > 200 µM and the MIC (Candida albicans [7]) was 0.5 µg/mL (≈ 1.63 µM). The MIC (Candida albicans [28]) was ≥ 64 µg/mL, the MIC (Candida parapsilosis [8]; read-out: MIC) was 1 µg/mL (≈ 3.27 µM) and the MIC (Candida parapsilosis [29]) was 0.5 to 4 µg/mL (≈ 1.63 to 13.1 µM). The MIC (Nannizzia gypsea [30]) was ≥ 64 µg/mL.
Work on C[C@H](CCCn1cc(CC(O)(Cn2cncn2)c2ccc(F)cc2F)nn1)[C@H]1CC[C@H]2[C@@H]3[C@H](O)C[C@@H]4C[C@H](O)CC[C@]4(C)[C@H]3C[C@H](O)[C@]12C (some centres undefined) yielded an MIC (Candida albicans [11]) of 3.12 to 6.25 µg/mL (≈ 4.57 to 9.15 µM) and an MIC (Candida parapsilosis [12]) of 3.12 to 6.25 µg/mL (≈ 4.57 to 9.15 µM).
Compound OC(CN1CCC(OCc2cccc(Br)c2)CC1)(Cn1cncn1)c1ccc(F)cc1F (centres undefined) has an MIC80 (Candida tropicalis [1]) of 0.01 to 0.56 µM (≈ 0.00507 to 0.284 µg/mL), a Ratio (Candida albicans [2]) of 82 and an MIC80 (Kluyveromyces marxianus) of 0.01 to 0.56 µM (≈ 0.00507 to 0.284 µg/mL). For the same compound, the MIC80 (Candida albicans [3]) was 0.01 to 0.56 µM (≈ 0.00507 to 0.284 µg/mL), the MIC80 (Cryptococcus neoformans [4]) was 0.01 to 0.56 µM and the MIC80 (Trichophyton rubrum [5]) was 0.01 to 0.56 µM (≈ 0.00507 to 0.284 µg/mL). The MIC80 (Aspergillus fumigatus [6]) was 0.01 to 0.56 µM (≈ 0.00507 to 0.284 µg/mL), the MIC80 (Candida albicans [7]) was 0.01 to 0.56 µM and the MIC80 (Candida parapsilosis [8]) was 0.01 to 0.56 µM.
For OC(CN1CCC(OCc2ccc(Cl)cc2Cl)CC1)(Cn1cncn1)c1ccc(F)cc1F (centres undefined), the MIC80 (Candida tropicalis [1]) was 0.01 to 2.33 µM (≈ 0.00497 to 1.16 µg/mL), the Ratio (Candida albicans [2]) was 82 and the MIC80 (Kluyveromyces marxianus) was 0.01 to 2.33 µM (≈ 0.00497 to 1.16 µg/mL). For the same compound, the MIC80 (Candida albicans [3]) was 0.01 to 2.33 µM (≈ 0.00497 to 1.16 µg/mL), the MIC80 (Cryptococcus neoformans [4]) was 0.01 to 2.33 µM and the MIC80 (Trichophyton rubrum [5]) was 0.03 to 0.15 µM (≈ 0.0149 to 0.0746 µg/mL). The MIC80 (Aspergillus fumigatus [6]) was 0.55 to 2.33 µM (≈ 0.274 to 1.16 µg/mL), the MIC80 (Candida albicans [7]) was 0.01 µM and the MIC80 (Candida parapsilosis [8]) was 0.01 to 2.33 µM.
